Reference: ChEMBL document CHEMBL1909046, “DrugMatrix in vitro pharmacology data”

Columns and labels:
[1] = target: Protein phosphatase 3 catalytic subunit alpha (Homo sapiens, UniProt Q08209); set-up: species or system Escherichia coli;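 also: inhibition of calcineurin (PP2B) enzyme activity, measured with DiFMUP as the substrate; in other assays of this panel Not Active means under 50% inhibition at 10 µM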
[2] = target: T1, Vasoactive intestinal polypeptide receptor 1 (Homo sapiens, UniProt P32241); assay type: cell membranes, Membrane; conditions: ht-29; also: in other assays of this panel Not Active means under 50% inhibition at 10 µM
T1 sequence (P32241 whole entry): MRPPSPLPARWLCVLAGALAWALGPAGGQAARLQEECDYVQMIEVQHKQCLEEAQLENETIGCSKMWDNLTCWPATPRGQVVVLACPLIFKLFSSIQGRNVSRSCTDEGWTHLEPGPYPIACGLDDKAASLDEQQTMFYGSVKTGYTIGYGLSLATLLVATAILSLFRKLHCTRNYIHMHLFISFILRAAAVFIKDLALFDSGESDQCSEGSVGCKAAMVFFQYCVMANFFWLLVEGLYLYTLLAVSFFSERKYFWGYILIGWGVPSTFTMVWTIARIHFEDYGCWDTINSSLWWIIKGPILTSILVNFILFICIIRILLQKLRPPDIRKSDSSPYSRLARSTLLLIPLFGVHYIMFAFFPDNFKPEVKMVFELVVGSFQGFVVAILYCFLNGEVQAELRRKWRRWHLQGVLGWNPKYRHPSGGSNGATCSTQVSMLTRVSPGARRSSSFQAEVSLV

[3] = target: T2, Type-2 angiotensin II receptor (Homo sapiens, UniProt P50052); assay type: cell-based; conditions: cho-k1; also: in other assays of this panel Not Active means under 50% inhibition at 10 µM
T2 sequence (P50052 whole entry): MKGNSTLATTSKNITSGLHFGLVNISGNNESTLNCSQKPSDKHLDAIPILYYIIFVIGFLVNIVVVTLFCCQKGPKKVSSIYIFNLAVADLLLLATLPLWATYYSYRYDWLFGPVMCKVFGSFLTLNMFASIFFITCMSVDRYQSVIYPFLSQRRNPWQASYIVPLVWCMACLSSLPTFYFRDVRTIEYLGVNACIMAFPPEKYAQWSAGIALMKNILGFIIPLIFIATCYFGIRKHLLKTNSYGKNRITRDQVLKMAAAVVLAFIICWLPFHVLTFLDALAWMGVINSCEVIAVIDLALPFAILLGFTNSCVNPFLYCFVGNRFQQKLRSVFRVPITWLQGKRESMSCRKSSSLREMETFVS

[4] = target: cGMP-specific 3',5'-cyclic phosphodiesterase (Homo sapiens, UniProt O76074); assay: DRUGMATRIX: Phosphodiesterase PDE5 enzyme inhibition (substrate: [3H]cGMP + cGMP); assay type: tissue-based, Platelet; conditions: platelet; Not Active = under 50% inhibition at 10 µM
[5] = target: T3, Alpha-2A adrenergic receptor (Homo sapiens, UniProt P08913); assay type: cell membranes, Sf9, Membrane; conditions: sf9; also: in other assays of this panel Not Active means under 50% inhibition at 10 µM
T3 sequence (P08913 whole entry): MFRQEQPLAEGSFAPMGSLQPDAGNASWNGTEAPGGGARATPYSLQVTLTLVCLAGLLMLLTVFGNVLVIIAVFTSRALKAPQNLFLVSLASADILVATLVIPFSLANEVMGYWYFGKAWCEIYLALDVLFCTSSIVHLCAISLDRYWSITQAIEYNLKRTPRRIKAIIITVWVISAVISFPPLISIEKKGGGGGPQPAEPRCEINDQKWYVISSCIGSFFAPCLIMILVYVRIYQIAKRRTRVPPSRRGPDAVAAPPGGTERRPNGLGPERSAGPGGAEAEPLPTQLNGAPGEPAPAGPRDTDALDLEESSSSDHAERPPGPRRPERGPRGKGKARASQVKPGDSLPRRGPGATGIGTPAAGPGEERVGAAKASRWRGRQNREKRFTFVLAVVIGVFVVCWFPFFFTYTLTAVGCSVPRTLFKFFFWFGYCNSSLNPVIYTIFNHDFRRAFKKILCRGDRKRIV

[6] = DRUGMATRIX: Leukotriene, BLT (LTB4) radioligand binding (ligand: [3H]LTB4); assay type: cell membranes, Membrane; conditions: u-937; Not Active = under 50% inhibition at 10 µM
Acetylcholinesterase = Acetylcholinesterase (Homo sapiens, UniProt P22303); assay: DRUGMATRIX: Acetylcholinesterase enzyme inhibition (substrate: acetylthiocholine); assay type: cell-based, HEK293; conditions: hek293; Not Active = under 50% inhibition at 10 µM
Chain of Acetylcholinesterase (P22303 whole entry): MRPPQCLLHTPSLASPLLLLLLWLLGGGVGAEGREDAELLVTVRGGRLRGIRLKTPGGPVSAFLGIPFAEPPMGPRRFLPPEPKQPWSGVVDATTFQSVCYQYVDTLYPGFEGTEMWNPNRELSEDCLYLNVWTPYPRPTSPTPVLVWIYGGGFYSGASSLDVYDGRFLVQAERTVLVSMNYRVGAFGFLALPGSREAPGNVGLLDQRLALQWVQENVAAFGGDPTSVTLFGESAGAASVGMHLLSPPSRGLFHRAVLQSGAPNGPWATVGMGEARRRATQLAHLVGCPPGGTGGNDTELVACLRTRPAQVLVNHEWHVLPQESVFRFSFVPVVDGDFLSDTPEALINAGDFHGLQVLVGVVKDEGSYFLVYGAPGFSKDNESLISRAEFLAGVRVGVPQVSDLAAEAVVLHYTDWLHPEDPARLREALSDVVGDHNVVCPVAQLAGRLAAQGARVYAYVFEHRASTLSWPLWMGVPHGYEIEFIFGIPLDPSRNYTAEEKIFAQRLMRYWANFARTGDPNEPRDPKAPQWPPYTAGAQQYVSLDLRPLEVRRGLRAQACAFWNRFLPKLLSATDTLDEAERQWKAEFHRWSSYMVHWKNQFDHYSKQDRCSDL

Molecule | IC50 [1] | IC50 [2] | IC50 [3] | IC50 [4] | IC50 [5] | IC50 [6] | Ki [6] | IC50 (Acetylcholinesterase) | Ki [1] | Ki [2] | Ki [3] | Ki [4] | IC50 ([5]; read-out: IC50) [nM] | Ki ([5]; read-out: Ki) [nM] | Ki (Acetylcholinesterase) | Ki [5]
CCCOc1ccc(C(=O)OCCN(CC)CC)cc1N [PROPARACAINE] | Not Active | Not Active | Not Active | Not Active | Not Active | Not Active | Not Active | Not Active | – | – | – | – | – | – | – | –
O=C(N/N=C/c1ccc([N+](=O)[O-])o1)c1cc([N+](=O)[O-])cc([N+](=O)[O-])c1O [NIFURSOL] | Not Active | Not Active | Not Active | Not Active | Not Active | Not Active | Not Active | Not Active | – | – | – | – | – | – | – | –
CC(=O)Oc1ccc(C(c2ccc(OC(C)=O)cc2)c2ccccn2)cc1 [BISACODYL] | Not Active | Not Active | Not Active | Not Active | Not Active | Not Active | Not Active | Not Active | – | – | – | – | – | – | – | –
CN(C)[C@@H]1C(O)=C(C(N)=O)C(=O)[C@@]2(O)C(O)=C3C(=O)c4c(O)ccc(Cl)c4[C@@](C)(O)[C@H]3C[C@@H]12 [CHLORTETRACYCLINE] | Not Active | Not Active | Not Active | Not Active | Not Active | Not Active | Not Active | Not Active | – | – | – | – | – | – | – | –
Nc1ccn([C@@H]2O[C@H](CO)[C@@H](O)[C@@H]2O)c(=O)n1 [CYTARABINE] | Not Active | Not Active | Not Active | Not Active | Not Active | Not Active | Not Active | Not Active | – | – | – | – | – | – | – | –
CCC1(CCC(C)C)C(=O)NC(=O)NC1=O [AMOBARBITAL] | Not Active | Not Active | Not Active | Not Active | Not Active | Not Active | Not Active | Not Active | – | – | – | – | – | – | – | –
AURANOFIN | Not Active | Not Active | Not Active | Not Active | – | Not Active | Not Active | Not Active | Not Active | Not Active | Not Active | Not Active | 884 | 331 | Not Active | –
O=C/C=C/c1ccccc1 | Not Active | Not Active | Not Active | Not Active | Not Active | Not Active | Not Active | Not Active | – | – | – | – | – | – | – | –
C=CCc1ccc(O)c(OC)c1 [EUGENOL] | Not Active | Not Active | Not Active | Not Active | Not Active | Not Active | Not Active | Not Active | – | – | – | – | – | – | – | –
COC1=C(OC)C(=O)C(CCCCCCCCCCO)=C(C)C1=O [IDEBENONE] | Not Active | Not Active | Not Active | Not Active | Not Active | Not Active | Not Active | Not Active | – | – | – | – | – | – | – | –
Oc1cccc(O)c1O [PYROGALLOL] | Not Active | Not Active | Not Active | Not Active | Not Active | Not Active | Not Active | Not Active | – | – | – | – | – | – | – | –
C[C@]12C=CC(=O)C=C1CC[C@@H]1[C@@H]2[C@@H](O)C[C@@]2(C)[C@H]1CC[C@]2(O)C(=O)CO [PREDNISOLONE] | Not Active | Not Active | Not Active | Not Active | Not Active | Not Active | Not Active | Not Active | – | – | – | – | – | – | – | –
CC(=O)[C@H]1[C@H](C#N)C[C@H]2[C@@H]3CC=C4C[C@@H](O)CC[C@]4(C)[C@H]3CC[C@@]21C [PREGNENOLONE CARBONITRILE] | Not Active | Not Active | Not Active | Not Active | Not Active | Not Active | Not Active | Not Active | – | – | – | – | – | – | – | –
CC(C(=O)O)c1cccc(Oc2ccccc2)c1 (stereo unspecified) [FENOPROFEN] | Not Active | Not Active | Not Active | Not Active | Not Active | Not Active | Not Active | Not Active | – | – | – | – | – | – | – | –
NNc1nncc2ccccc12 [HYDRALAZINE] | Not Active | Not Active | Not Active | Not Active | Not Active | Not Active | Not Active | Not Active | – | – | – | – | – | – | – | –
O=C1O[C@H]([C@@H](O)CO)C(O)=C1O [ASCORBIC ACID] | Not Active | Not Active | Not Active | Not Active | Not Active | Not Active | Not Active | Not Active | – | – | – | – | – | – | – | –
NC(=O)C[S+]([O-])C(c1ccccc1)c1ccccc1 (stereo unspecified) [MODAFINIL] | Not Active | Not Active | Not Active | Not Active | Not Active | Not Active | Not Active | Not Active | – | – | – | – | – | – | – | –
CCN(CC)CCOCCC1=CCC2CC1C2(C)C (stereo unspecified) [MYRTECAINE] | Not Active | Not Active | Not Active | Not Active | Not Active | Not Active | Not Active | Not Active | – | – | – | – | – | – | – | –
GRAMICIDIN | Not Active | Not Active | Not Active | Not Active | Not Active | Not Active | Not Active | Not Active | Not Active | Not Active | Not Active | Not Active | – | – | Not Active | Not Active
COc1cc([C@@H]2c3cc4c(cc3[C@@H](O[C@@H]3O[C@@H]5CO[C@@H](C)O[C@H]5[C@H](O)[C@H]3O)[C@H]3COC(=O)[C@H]23)OCO4)cc(OC)c1O [ETOPOSIDE] | Not Active | Not Active | Not Active | Not Active | Not Active | Not Active | Not Active | Not Active | – | – | – | – | – | – | – | –
CCC1(C)CC(=O)NC1=O (stereo unspecified) [ETHOSUXIMIDE] | Not Active | Not Active | Not Active | Not Active | Not Active | Not Active | Not Active | Not Active | – | – | – | – | – | – | – | –
Cc1nnc2n1-c1ccc(Cl)cc1C(c1ccccc1)=NC2 [ALPRAZOLAM] | Not Active | Not Active | Not Active | Not Active | Not Active | Not Active | Not Active | Not Active | – | – | – | – | – | – | – | –
CC(C)=CCC/C(C)=C/CO [GERANIOL] | Not Active | Not Active | Not Active | Not Active | Not Active | Not Active | Not Active | Not Active | – | – | – | – | – | – | – | –
COc1ccc(C(=O)N2CCCC2=O)cc1 | Not Active | Not Active | Not Active | Not Active | Not Active | Not Active | Not Active | Not Active | – | – | – | – | – | – | – | –
GENTAMICIN | Not Active | Not Active | Not Active | Not Active | Not Active | Not Active | Not Active | Not Active | Not Active | Not Active | Not Active | Not Active | – | – | Not Active | Not Active
CC(C)NNC(=O)c1ccncc1 [IPRONIAZID] | Not Active | Not Active | Not Active | Not Active | Not Active | Not Active | Not Active | Not Active | – | – | – | – | – | – | – | –
